Structures can show the parent of a compound that is named as a salt.
Legend:
Test in all cases: viability inhibition at highest dose (% inhibition); higher = more growth inhibition
BT-474 Tam1 = settings: 4-OH-tamoxifen in medium 1 µM; 72 h
Procedure: (§1)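 Percent inhibition of viability (CellTiter-Glo, 72 h) at the highest tested concentration (D5), normalised to DMSO (0%) and 100 µM benzethonium chloride (100%). Resistant lines and the 'in 1µM tamoxifen' arms were tested in 1 µM 4-OH-tamoxifen.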

MCF-7 Tam1 = settings: 4-OH-tamoxifen in medium 1 µM; 72 h
Procedure: as §1

T-47D Tam1 = settings: 4-OH-tamoxifen in medium 1 µM; 72 h
Procedure: as §1

ZR-75-1 Tam2 = settings: 4-OH-tamoxifen in medium 1 µM; 72 h
Procedure: as §1

T-47D = settings: 72 h
Procedure: as §1

ZR-75-1 Tam1 = settings: 4-OH-tamoxifen in medium 1 µM; 72 h
Procedure: as §1

MCF-7 = settings: 72 h
Procedure: as §1

BT-474 Tam2 = settings: 4-OH-tamoxifen in medium 1 µM; 72 h
Procedure: as §1

ZR-75-1 = settings: 72 h
Procedure: as §1

T-47D Tam2 = settings: 4-OH-tamoxifen in medium 1 µM; 72 h
Procedure: as §1

BT-474 = settings: 72 h
Procedure: as §1

SMILES | viability inhibition at highest dose (BT-474 Tam1) | viability inhibition at highest dose (MCF-7 Tam1) | viability inhibition at highest dose (T-47D Tam1) | viability inhibition at highest dose (ZR-75-1 Tam2) | viability inhibition at highest dose (T-47D; 4-OH-tamoxifen in medium 0 µM) | viability inhibition at highest dose (T-47D; 4-OH-tamoxifen in medium 1 µM) | viability inhibition at highest dose (ZR-75-1 Tam1) | viability inhibition at highest dose (MCF-7; 4-OH-tamoxifen in medium 0 µM) | viability inhibition at highest dose (MCF-7; 4-OH-tamoxifen in medium 1 µM) | viability inhibition at highest dose (BT-474 Tam2) | viability inhibition at highest dose (ZR-75-1; 4-OH-tamoxifen in medium 0 µM) | viability inhibition at highest dose (ZR-75-1; 4-OH-tamoxifen in medium 1 µM) | viability inhibition at highest dose (T-47D Tam2) | viability inhibition at highest dose (BT-474; 4-OH-tamoxifen in medium 0 µM) | viability inhibition at highest dose (BT-474; 4-OH-tamoxifen in medium 1 µM)
COc1c2occc2cc2ccc(=O)oc12 [Methoxsalen] (drug 10000 nM) | 10.8 | -6.39 | -4.99 | -6.82 | -17.2 | -5.34 | 2.54 | -6.63 | 1.6 | 1.89 | -8.57 | 1.74 | 7.26 | -4.57 | 7.92
C[C@H]1C[C@@H]2[C@H]([C@@H](O)C[C@@]3(C)[C@H]2CC[C@]3(O)C(=O)CO)[C@@]2(C)C=CC(=O)C=C12 [Methylprednisolone] (drug 10000 nM) | -9.86 | -0.753 | -1.09 | 0.244 | -19.3 | -15.1 | 6.19 | -1.81 | 18.4 | -2.3 | -6.28 | -4.27 | 8.67 | -7.44 | -20.6
CO[C@@H]1[C@H](N(C)C(=O)c2ccccc2)C[C@H]2O[C@]1(C)n1c3ccccc3c3c4c(c5c6ccccc6n2c5c31)C(=O)NC4 [Midostaurin (PKC412)] (drug 10000 nM) | 27.5 | 17.7 | 34.6 | -15.6 | 18.3 | 39.4 | -11.5 | 18.9 | 17 | 19.4 | -11.7 | 0.532 | 25.1 | 23.7 | 40.4
CO[C@@]12[C@H](COC(N)=O)C3=C(C(=O)C(C)=C(N)C3=O)N1C[C@@H]1N[C@@H]12 [Mitomycin C] (drug 10000 nM) | 0.772 | -6.06 | 33.5 | 23.4 | 31.4 | -4.69 | 28.3 | 16.2 | 11.4 | 0.827 | 25.5 | 23.7 | 10.8 | -12.3 | -7
Clc1ccc(C(c2ccccc2Cl)C(Cl)Cl)cc1 (stereo not given) [Mitotane] (drug 10000 nM) | 4.23 | -2.99 | 8.29 | -0.971 | -16.5 | -15.2 | 1.3 | -8.27 | 0.312 | 3.56 | -16.5 | -2.85 | 8.17 | -9.37 | -3.54
O=C1c2c(O)ccc(O)c2C(=O)c2c(NCCNCCO)ccc(NCCNCCO)c21 [Mitoxantrone] (drug 1000 nM) | -23.8 | 1.72 | 47.8 | 24.9 | 29.5 | 2.9 | 21.3 | -3.19 | 7.73 | -13.6 | 29.7 | 20.2 | 21.5 | 3.96 | -1.95
Nc1ccccc1NC(=O)c1ccc(CNc2nccc(-c3cccnc3)n2)cc1 [Mocetotinostat (MGCD0103)] (drug 10000 nM) | 95.4 | 15.4 | 52.9 | 31 | 81.2 | 73.8 | 27.6 | 80.1 | 62.7 | 83.4 | 32.8 | 23.3 | 41.7 | 65.7 | 94.3
N#CCNC(=O)c1ccc(-c2ccnc(Nc3ccc(N4CCOCC4)cc3)n2)cc1 [Momelotinib (CYT-387)] (drug 10000 nM) | 38.6 | 43.1 | 39.2 | 8.52 | 22.8 | 17.9 | 7.45 | 48.5 | 69 | 31.1 | 6.2 | 5.38 | 40 | 3.98 | -26.5
CC1(C)CNc2cc(NC(=O)c3cccnc3NCc3ccncc3)ccc21 [Motesanib  (AMG-706)] (drug 10000 nM) | -2.75 | -1.95 | 9.4 | -1.27 | -15.1 | -10.7 | -1.35 | -2.53 | 1.3 | -2.84 | -8.12 | -2.93 | 12.6 | -7.25 | -16.2
CCNC(=O)c1noc(-c2cc(C(C)C)c(O)cc2O)c1-c1ccc(CN2CCOCC2)cc1 [NVP-AUY922] (drug 1000 nM) | 75.2 | 24.1 | 49.8 | 44.4 | 68.8 | 55.5 | 28.5 | 61.6 | 46.1 | 65.7 | 34.2 | 42.6 | 55 | 48.6 | 78
CCN1CCN(c2ccc(Nc3cc(N(C)C(=O)Nc4c(Cl)c(OC)cc(OC)c4Cl)ncn3)cc2)CC1 [NVP-BGJ398] (drug 1000 nM) | 14.4 | 0.341 | 5.28 | -4.28 | -9.62 | 3.56 | -4.94 | -15.8 | 2.98 | 5.89 | -1.6 | -10.3 | -8.43 | -15.6 | 1.03
CC1(C)CCC(c2ccc(Cl)cc2)=C(CN2CCN(c3ccc(C(=O)NS(=O)(=O)c4ccc(N[C@H](CCN5CCOCC5)CSc5ccccc5)c(S(=O)(=O)C(F)(F)F)c4)cc3)CC2)C1 [Navitoclax (ABT-263)] (drug 10000 nM) | 33.3 | 5 | 38.4 | -6.95 | 0.832 | 3.74 | -1.41 | 27 | 14.2 | 32.7 | -9.03 | -6.23 | 23.7 | 6.74 | 47.7
COc1nc(N)nc2c1ncn2[C@@H]1O[C@H](CO)[C@@H](O)[C@@H]1O [Nelarabine] (drug 10000 nM) | 0.136 | 4.67 | -2.1 | 2.19 | 1.79 | 6.8 | 1.44 | 13.2 | -6.84 | -6.72 | 11.1 | 4.17 | -4.97 | -2.92 | 16.3
CCOc1cc2ncc(C#N)c(Nc3ccc(OCc4ccccn4)c(Cl)c3)c2cc1NC(=O)/C=C/CN(C)C [Neratinib] (drug 1000 nM) | 97.4 | 8.88 | 32.5 | 9.49 | 19 | 1.93 | 2.29 | -5.52 | 24.9 | 97.1 | -13 | 9.01 | 32.5 | 83.2 | 95
Cc1cn(-c2cc(NC(=O)c3ccc(C)c(Nc4nccc(-c5cccnc5)n4)c3)cc(C(F)(F)F)c2)cn1 [Nilotinib] (drug 10000 nM) | 22.9 | -8.69 | -0.169 | -2.53 | -17.5 | -20.8 | 2.47 | 5.79 | 5.88 | 1.02 | -11.8 | -6.98 | 2.08 | -6.7 | 1.42
CC1(C)NC(=O)N(c2ccc([N+](=O)[O-])c(C(F)(F)F)c2)C1=O [Nilutamide] (drug 10000 nM) | -0.747 | -1.08 | 0.496 | 4.62 | -3.55 | -11.8 | 2.7 | -15.4 | 15.9 | 10.7 | -16.5 | -4.81 | 6 | -2.3 | -13.3
COC(=O)c1ccc2c(c1)NC(=O)/C2=C(\Nc1ccc(N(C)C(=O)CN2CCN(C)CC2)cc1)c1ccccc1 [Nintedanib (BIBF 1120)] (drug 10000 nM) | 30.7 | -3.72 | -2.42 | -3.8 | -18.3 | -16.7 | 7.5 | 12.4 | 3.6 | -5.56 | -10.8 | -9.4 | 5.71 | 5.93 | 24.8
COc1ccc(C2=N[C@@H](c3ccc(Cl)cc3)[C@@H](c3ccc(Cl)cc3)N2C(=O)N2CCNC(=O)C2)c(OC(C)C)c1 [Nutlin-3] (drug 10000 nM) | 33.4 | 16.7 | 15.8 | 42.8 | 1.78 | 1.4 | 31.8 | 28.5 | 45.2 | 29.7 | 36 | 29.7 | 20.4 | -7.59 | 11.2
COc1cccc2cc(-c3nc([C@H]4CC[C@H](C(=O)O)CC4)n4ncnc(N)c34)[nH]c12 [OSI-027] (drug 10000 nM) | 38.1 | 30.1 | 55.6 | 65.5 | 62.6 | 42.7 | 52.6 | 44.4 | 43.9 | 35.6 | 60.5 | 52.9 | 38 | 35.5 | 47.5
COC1=CC(c2cc3ccccc3[nH]2)=N/C1=C\c1[nH]c(C)cc1C [Obatoclax (GX15-070)] (drug 10000 nM) | 36.3 | 51.1 | 67.3 | 50.8 | 47 | 44.1 | 23.7 | 45.6 | 75.8 | 86.7 | 32.5 | 31.2 | 36.8 | 68.9 | 18.9
O=C(c1cc(Cc2n[nH]c(=O)c3ccccc23)ccc1F)N1CCN(C(=O)C2CC2)CC1 [Olaparib] (drug 10000 nM) | 11.7 | -1.72 | 3.42 | 6.09 | 10.8 | 0.545 | 9.56 | -12.5 | 18 | 6.64 | 2.83 | -2.23 | 13.8 | -3.98 | -18.1
COC(=O)C[C@](O)(CCCC(C)(C)O)C(=O)O[C@@H]1C(OC)=C[C@]23CCCN2CCc2cc4c(cc2[C@H]13)OCO4 [Omacetaxine (Homoharringtonine)] (drug 10000 nM) | 82.1 | 62.7 | 74.5 | 76.1 | 81.1 | 55.6 | 53.7 | 82.1 | 75.5 | 73.4 | 54.1 | 52.2 | 71.4 | 19.5 | 75
O=C(O)C(=O)O.[NH-][C@@H]1CCCC[C@H]1[NH-].[Pt+2] [Oxaliplatin] (drug 10000 nM) | -7.39 | -5.32 | 1.11 | 5.48 | -7.69 | -13.3 | 4.08 | 4.06 | 3.34 | 1.63 | 2.13 | -0.0598 | 5.52 | -9.5 | -21.1
O=C(Nc1cccnc1)N1CCC(Cc2cccc(Oc3ccc(C(F)(F)F)cn3)c2)CC1 [PF-3845] (drug 10000 nM) | 95.4 | 29.1 | 52.3 | 49.9 | 40.6 | 25.3 | 39.4 | 53.1 | 58.6 | 95.7 | 30.5 | 51.3 | 36.1 | 72 | 81.8
COc1ccccc1S(=O)(=O)Nc1ccc2c(c1)CN(C)C(=O)N2 [PFI-1] (drug 10000 nM) | 25.7 | 4.98 | 36.4 | 25.8 | 26.2 | 14 | 23.8 | 44.2 | 38.1 | 30.3 | 13.1 | 25.2 | 32.8 | 32.8 | 25.7
Cc1ccc([N+](=O)[O-])cc1S(=O)(=O)N(C)/N=C/c1cnc2ccc(Br)cn12 [PIK-75 (HCl)] (drug 10000 nM) | 99.3 | 81.4 | 91.4 | 83.9 | 60.4 | 56.9 | 88.8 | 64.9 | 85.5 | 98.6 | 80 | 71 | 83.6 | 97.9 | 97.7

Reference: the supplement of paper PMC4932681
